The subject of one data set is histone H4 acetylation. Description: Histone H4 hyperacetylation Western blot in embryos. The class given is in vivo, zebrafish. The conditions noted are these: 24 hpf embryos treated 6 hours; 3 μM PTBA, 25 μM PBA, 200 nM TSA. How it is done:
It was next determined whether the HDACi function of PTBA was quantifiable in vivo. 24 hpf embryos were treated with 3 μM PTBA, 25 μM PBA, or 200 nM TSA for 6 hours. Protein extracts were prepared and immunoblotted with an anti-hyperacetylated histone H4 antibody. […] Furthermore, increasing the compound concentration caused a corresponding increase in hyperacetylation (FIG. 21).
SDS-PAGE and Western blotting were performed as described previously with some modifications (Noel, E. S. et al. Organ-specific requirements for Hdac1 in liver and pancreas formation. Dev Biol 322, 237-250, (2008)). Proteins were separated on 18% SDS-PAGE gels. Membranes were incubated at 4° C. overnight with 1:1000 anti-hyperacetylated histone H4 antibody (06-946, Millipore) or 1:1000 anti-α-tubulin antibody (Sigma-Aldrich) in PBT containing 5% nonfat milk.

The test system of data set [1] is renal progenitor cells (lhx1a expression). Briefly: In situ hybridization for lhx1a expression in 10-somite embryos (renal progenitor cell expansion). It is filed as in vivo. As to the method: (§1) PTBA was synthesized as described below. Hydroxyurea and aphidicolin were obtained from Sigma-Aldrich.
(§2) In situ hybridization and immunocytochemistry: In situ hybridization was performed as previously described with some modifications. 142 Hybridization temperature was 65° C. Embryos were blocked in 2% blocking reagent (Roche) with 5% sheep serum in MAB (100 mM maleic acid and 150 mM NaCl [pH 7.5]). Whole-mount immunocytochemistry with 1:25 mouse anti-α6F antibody (Developmental Studies Hybridoma Bank) and 1:100 Cy3 secondary antibody (Jackson ImmunoResearch) was performed as described previously. 108 Embryos were embedded in JB-4 for sectioning per the manufacturer's instructions (Polysciences), sectioned at 5 μm, and mounted with Cytoseal 60 (Richard-Allan Scientific).
The remaining PTBA analogs were synthesized.
In situ hybridization for lhx1a was performed as described above. […] Compounds were classified as effective, partially-effective or ineffective based on comparison to the effects of PTBA at a given concentration.
Testing of the compounds is on-going, but for those tested, Table 3 provides first pass EC50s based upon colormetric in situ hybridizations for the Lhx1a mRNA expression levels. After the procedure is run, in situ hybridization is done for the lhx1 mRNA expression and the number of embryos that show an expanded kidney field is manually counted to establish the percent of embryos showing expansion. Then the EC50 is determined by plotting the percent expansion in Excel, graphing the results and using the trendline function to determine the 50 percent point. […] For UPHD-00186, the 4 values for EC50 are shown in Table 3 for the corresponding expression in zebrafish embryos employed an artificial intelligence-based image analysis method termed cognition network technology (CNT) for n=4.

Data set [2] has as its system myod1 (somites), fli1a (vasculature), ntla (notochord). Briefly: In situ hybridization for mesodermal markers myod1, fli1a, ntla in 10-somite embryos. It is filed as in vivo, zebrafish. How it is done: as §1, §2
Data set [3] deals with human HDACs (HeLa cell nuclear extract). Briefly: Fluorescence histone deacetylation assay with HeLa cell nuclear extract. The class given is biochemical. The conditions noted are these: 1 μM TSA, all input levels of nuclear extract. How it is done:
To evaluate this in vitro, the deacetylation of a fluorescent peptide substrate was measured in the presence of human HDACs.
In vitro HDAC activity assays were performed using a fluorescence HDAC assay kit (Active Motif) according to the manufacturer's instructions. For maintaining compound solubility at 5 mM, the final DMSO concentration in all assay wells was increased to 5%. Fluorescence was detected using an M5 Plate Reader ([…])

A further data set has as its system zebrafish larvae. Description: Phenotypic scoring of edema and survival in zebrafish larvae at 72 hpf. It is filed as in vivo.
Source text: as §1
Wild type: no visible edema or developmental delay.

For data set [4] the following is noted: cited from earlier work.

Entries after “also recorded” stand apart in the source; their conditions may differ.

With `CC(/C=C/C(=O)NO)=C\[C@@H](C)C(=O)c1ccc(N(C)C)cc1` [TSA, trichostatin A], the “histone H4 hyperacetylation” value with histone H4 acetylation is listed as “hyperacetylation was observed”. Besides, the “embryos with expanded lhx1a expression (% expansion)” value in data set [1] (100 nM) is 97%; in data set [1] (200 nM), 100%. Besides, in data set [1] (100 nM from 2 hpf), the “lhx1a expansion class, 100 nM” value was “+”. In addition, the “lhx1a expansion class, 200 nM” value in data set [1] (200 nM from 2 hpf) is given as “+”. Also, the “lethality before the 10-somite stage” value is on record as “died before reaching 10 somites” in data set [1] (400 nM), “lethal” in data set [1] (800 nM), “lethal” in data set [1] (1.5 μM) and “killed all treated embryos” in data set [1] (3 μM). Besides, in data set [1] (10-somite embryos), the “concentration producing lhx1a expansion consistent with 3 μM PTBA” value is recorded as 200 nM. The “embryos with disrupted normal ntla expression” value in data set [2] (200 nM) was 86%. In data set [2] (3 μM PTBA (slightly decreased), 25 μM PBA, 200 nM TSA), the “embryos with decreased myod1 expression” value is reported as 100%. The “embryos with decreased fli1a expression” value in data set [2] (25 μM PBA, 200 nM TSA) is given as 95%. Also, the “effect on HDAC activity” value in data set [3] was “completely blocked activity; also recorded: inhibit all HDAC activity”. The “treated 72 hpf larvae killed” value in the data set with zebrafish larvae (300 nM) is given as “greater than 90%”. Also, in the data set with zebrafish larvae (3 μM, 2 to 72 hpf), the “larval phenotype in phenotypic screen of analogs” value was “generated edemic and/or lethal phenotypes”. The “death (lethality) by 72 hpf” value in the data set on zebrafish larvae (25 μM PBA, 200 nM TSA, n=90) turned out to be 61%. The “larvae with edemic phenotype / pericardial edema at 72 hpf” value with zebrafish larvae (treated from 2 hpf, 3 μM PTBA, 25 μM PBA, 200 nM TSA) was found to be 100%.
Turning to `O=C(O)CCCc1ccccc1` [Buphenyl], the “half-life (t1/2)” value in data set [4] (following administration) was roughly 1 h. Moreover, in data set [4] (taken orally), the bioavailability entry is on record as “about 80%”.

The record behind these values is US10233201B2, “Class of HDAC inhibitors expands the renal progenitor cells population and improves the rate of recovery from acute kidney injury” (University of Pittsburgh—Of the Commonwealth System of …, priority 2012, dated 2019).
